Data taken from US20240058422A1, “GLUCAGON-LIKE PEPTIDE-1 RECEPTOR ANTAGONISTS” (INDIANA UNIVERSITY RESEARCH AND TECHNOLOGY CORPORATION, priority 2022, published 2024).
Read-outs that look alike come from different tables or passages of the source. Starred links: 1 amine or outer side, 2 acyl side, 3 side chain; linkers in the order of their positions; H or OH if unused. Non-standard residues stand in square brackets, D forms with d. Residues, ends and D or L forms follow the SMILES beside them. Groups on a side chain read outwards from the residue. *: point of attachment. γGlu = O=C(O)[C@H](CCC(=O)[*:2])N[*:1]; Palmitoyl = CCCCCCCCCCCCCCCC(=O)*; AEEA = NCCOCCOCC(=O)O

Experiments:
GLP-1R = GLP-1R (Homo sapiens, UniProt P43220); assay: GLP-1 receptor-mediated cAMP induction, luciferase reporter gene antagonism assay; assay type: cell-based; design: host or cells: HEK 293; details: antagonism of 0.05 nM GLP-1, HEK 293 cells
Description: GLP-1 Receptor-Mediated cAMP Induction The ability of peptides to stimulate or block cAMP induction at the GLP-1 receptor was examined by a luciferase-based reporter gene assay. Cotransfection of HEK 293 cells with the human GLP-1 receptor (Open Biosystems) and a cAMPinducible (cAMPresponsive element) luciferase gene constituted the cellular construct where receptor activation could be measured. Bioassays were performed by first serum depriving the cells for 16 h in 0.25% bovine growth serum (HyClone)-supplemented Dulbecco's modified Eagle's medium (Invitrogen) and then adding serial dilutions of the peptides over the appropriate concentration ranges in 96-well poly-D-lysine-coated plates (BD Biosciences). For antagonism assays, a constant concentration of GLP-1 (0.05 nM) was added to the assay plate after the diluted peptides. Incubation continued for 5 h at 37° C., 5% CO2 and was followed by the addition of an equivalent volume (100 μL) of LucLite luminescence substrate reagent (Perkin-Elmer). MicroBeta 1450 liquid scintillation counting (Perkin-Elmer) quantified the luminescence signal in counts per second (cps) after shaking the plate at 600 rpm for 3 min. Data was plotted using Origin software (OriginLab) and the effective concentration 50 (EC50) or inhibitory concentration 50 (IC50) was determined by sigmoidal fitting. Potency was determined by comparative analysis of relative EC50 or IC50 values. Each experiment was repeated at least three times with each sample assayed in duplicate.

Solubility in buffer = details: 80 mM ammonium bicarbonate buffer, 80 mM AmBicarb pH7.7
[1] = Table 2, C16 linker variants of 9-40amide Jant4 K40[X], read-out: Biactivity IC50
[2] = pH 7.7, Solubility [mg/mL] 80 mM AmBicarb pH7.7, Table 2

Chain of GLP-1R (P43220 24-463): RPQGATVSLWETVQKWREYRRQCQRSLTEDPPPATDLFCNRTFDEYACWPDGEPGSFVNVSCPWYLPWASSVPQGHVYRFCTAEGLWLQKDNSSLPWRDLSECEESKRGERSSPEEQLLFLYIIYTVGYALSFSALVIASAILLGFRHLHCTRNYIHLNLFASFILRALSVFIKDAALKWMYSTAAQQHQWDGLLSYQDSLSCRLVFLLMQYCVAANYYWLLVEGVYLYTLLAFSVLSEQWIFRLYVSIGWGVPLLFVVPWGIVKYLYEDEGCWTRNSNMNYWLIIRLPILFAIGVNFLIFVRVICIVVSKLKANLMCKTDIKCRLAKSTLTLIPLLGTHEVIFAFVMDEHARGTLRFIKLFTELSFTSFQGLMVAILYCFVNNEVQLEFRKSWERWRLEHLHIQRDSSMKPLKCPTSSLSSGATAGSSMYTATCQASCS

SMILES	IC50 (GLP-1R; Table 5, d-AA variants of 9-40am Jant4 K40[C16], read-out: Bioactivity KC50) [nM]	solubility (Solubility in buffer; pH 7.7, Solubility [mg/mL] 80 mM/AmBicarb pH7.7, Table 5) [mg/mL]	IC50 (GLP-1R; [1]) [nM]	solubility (Solubility in buffer; [2]) [mg/mL]
CCCCCCCCCCCCCCCC(=O)NCCCC[C@H](NC(=O)[C@H](CO)NC(=O)[C@@H]1CCCN1C(=O)[C@@H]1CCCN1C(=O)[C@@H]1CCCN1C(=O)[C@H](C)NC(=O)CNC(=O)[C@H](CO)NC(=O)[C@H](CO)NC(=O)[C@@H]1CCCN1C(=O)CNC(=O)CNC(=O)[C@H](CCCCN)NC(=O)[C@@H](NC(=O)[C@H](CC(C)C)NC(=O)[C@H](Cc1c[nH]c2ccccc12)NC(=O)[C@H](C)NC(=O)[C@H](NC(=O)[C@H](Cc1ccccc1)NC(=O)[C@H](CCC(=O)O)NC(=O)[C@H](CCCNC(=N)N)NC(=O)[C@@H](NC(=O)[C@H](C)NC(=O)[C@H](CCC(N)=O)NC(=O)[C@H](CCC(=O)O)NC(=O)[C@H](CCC(=O)O)NC(=O)[C@H](CC(C)C)NC(=O)[C@H](Cc1ccc(O)cc1)NC(=O)[C@H](CO)NC(=O)[C@H](CO)NC(=O)[C@@H](NC(=O)[C@@H](N)CC(=O)O)C(C)C)C(C)C)[C@H](C)CC)C(C)C)C(N)=O [compound 51] (H-DVSSYLEEQAVREF[dI]AWLVKGGPSSGAPPPSK(Palmitoyl)-NH2; N-terminus assumed)	31	> 20		
CCCCCCCCCCCCCCCC(=O)N[C@@H](CCC(=O)NCCCC[C@H](NC(=O)[C@H](CO)NC(=O)[C@@H]1CCCN1C(=O)[C@@H]1CCCN1C(=O)[C@@H]1CCCN1C(=O)[C@H](C)NC(=O)CNC(=O)[C@H](CO)NC(=O)[C@H](CO)NC(=O)[C@@H]1CCCN1C(=O)CNC(=O)CNC(=O)[C@H](CCCCN)NC(=O)[C@@H](NC(=O)[C@H](CC(C)C)NC(=O)[C@H](Cc1c[nH]c2ccccc12)NC(=O)[C@H](C)NC(=O)[C@@H](NC(=O)[C@H](Cc1ccccc1)NC(=O)[C@H](CCC(=O)O)NC(=O)[C@H](CCCNC(=N)N)NC(=O)[C@@H](NC(=O)[C@H](C)NC(=O)[C@H](CCC(N)=O)NC(=O)[C@H](CCC(=O)O)NC(=O)[C@H](CCC(=O)O)NC(=O)[C@H](CC(C)C)NC(=O)[C@H](Cc1ccc(O)cc1)NC(=O)[C@H](CO)NC(=O)[C@H](CO)NC(=O)[C@@H](NC(=O)[C@@H](N)CC(=O)O)C(C)C)C(C)C)[C@@H](C)CC)C(C)C)C(N)=O)C(=O)O [compound 52] (H-DVSSYLEEQAVREFIAWLVKGGPSSGAPPPSK([γGlu-Palmitoyl])-NH2; N-terminus assumed)			12	> 20
CCCCCCCCCCCCCCCC(=O)N[C@@H](CCC(=O)N[C@@H](CCC(=O)NCCCC[C@H](NC(=O)[C@H](CO)NC(=O)[C@@H]1CCCN1C(=O)[C@@H]1CCCN1C(=O)[C@@H]1CCCN1C(=O)[C@H](C)NC(=O)CNC(=O)[C@H](CO)NC(=O)[C@H](CO)NC(=O)[C@@H]1CCCN1C(=O)CNC(=O)CNC(=O)[C@H](CCCCN)NC(=O)[C@@H](NC(=O)[C@H](CC(C)C)NC(=O)[C@H](Cc1c[nH]c2ccccc12)NC(=O)[C@H](C)NC(=O)[C@@H](NC(=O)[C@H](Cc1ccccc1)NC(=O)[C@H](CCC(=O)O)NC(=O)[C@H](CCCNC(=N)N)NC(=O)[C@@H](NC(=O)[C@H](C)NC(=O)[C@H](CCC(N)=O)NC(=O)[C@H](CCC(=O)O)NC(=O)[C@H](CCC(=O)O)NC(=O)[C@H](CC(C)C)NC(=O)[C@H](Cc1ccc(O)cc1)NC(=O)[C@H](CO)NC(=O)[C@H](CO)NC(=O)[C@@H](NC(=O)[C@@H](N)CC(=O)O)C(C)C)C(C)C)[C@@H](C)CC)C(C)C)C(N)=O)C(=O)O)C(=O)O [compound 53] (H-DVSSYLEEQAVREFIAWLVKGGPSSGAPPPSK([γGlu-γGlu-Palmitoyl])-NH2)			13	> 20
CCCCCCCCCCCCCCCC(=O)N[C@@H](CCC(=O)N[C@@H](CCC(=O)N[C@@H](CCC(=O)N[C@@H](CCC(=O)NCCCC[C@H](NC(=O)[C@H](CO)NC(=O)[C@@H]1CCCN1C(=O)[C@@H]1CCCN1C(=O)[C@@H]1CCCN1C(=O)[C@H](C)NC(=O)CNC(=O)[C@H](CO)NC(=O)[C@H](CO)NC(=O)[C@@H]1CCCN1C(=O)CNC(=O)CNC(=O)[C@H](CCCCN)NC(=O)[C@@H](NC(=O)[C@H](CC(C)C)NC(=O)[C@H](Cc1c[nH]c2ccccc12)NC(=O)[C@H](C)NC(=O)[C@@H](NC(=O)[C@H](Cc1ccccc1)NC(=O)[C@H](CCC(=O)O)NC(=O)[C@H](CCCNC(=N)N)NC(=O)[C@@H](NC(=O)[C@H](C)NC(=O)[C@H](CCC(N)=O)NC(=O)[C@H](CCC(=O)O)NC(=O)[C@H](CCC(=O)O)NC(=O)[C@H](CC(C)C)NC(=O)[C@H](Cc1ccc(O)cc1)NC(=O)[C@H](CO)NC(=O)[C@H](CO)NC(=O)[C@@H](NC(=O)[C@@H](N)CC(=O)O)C(C)C)C(C)C)[C@@H](C)CC)C(C)C)C(N)=O)C(=O)O)C(=O)O)C(=O)O)C(=O)O [compound 54] (H-DVSSYLEEQAVREFIAWLVKGGPSSGAPPPSK([γGlu-γGlu-γGlu-γGlu-Palmitoyl])-NH2)			21	> 20
CCCCCCCCCCCCCCCC(=O)N[C@@H](CCC(=O)N[C@@H](CCC(=O)N[C@@H](CCC(=O)N[C@@H](CCC(=O)N[C@@H](CCC(=O)N[C@@H](CCC(=O)NCCCC[C@H](NC(=O)[C@H](CO)NC(=O)[C@@H]1CCCN1C(=O)[C@@H]1CCCN1C(=O)[C@@H]1CCCN1C(=O)[C@H](C)NC(=O)CNC(=O)[C@H](CO)NC(=O)[C@H](CO)NC(=O)[C@@H]1CCCN1C(=O)CNC(=O)CNC(=O)[C@H](CCCCN)NC(=O)[C@@H](NC(=O)[C@H](CC(C)C)NC(=O)[C@H](Cc1c[nH]c2ccccc12)NC(=O)[C@H](C)NC(=O)[C@@H](NC(=O)[C@H](Cc1ccccc1)NC(=O)[C@H](CCC(=O)O)NC(=O)[C@H](CCCNC(=N)N)NC(=O)[C@@H](NC(=O)[C@H](C)NC(=O)[C@H](CCC(N)=O)NC(=O)[C@H](CCC(=O)O)NC(=O)[C@H](CCC(=O)O)NC(=O)[C@H](CC(C)C)NC(=O)[C@H](Cc1ccc(O)cc1)NC(=O)[C@H](CO)NC(=O)[C@H](CO)NC(=O)[C@@H](NC(=O)[C@@H](N)CC(=O)O)C(C)C)C(C)C)[C@@H](C)CC)C(C)C)C(N)=O)C(=O)O)C(=O)O)C(=O)O)C(=O)O)C(=O)O)C(=O)O [compound 55] (H-DVSSYLEEQAVREFIAWLVKGGPSSGAPPPSK([γGlu-γGlu-γGlu-γGlu-γGlu-γGlu-Palmitoyl])-NH2; N-terminus assumed)			22	> 20
CCCCCCCCCCCCCCCC(=O)N[C@@H](CCC(=O)NCCOCCOCC(=O)N[C@@H](CCC(=O)NCCOCCOCC(=O)NCCCC[C@H](NC(=O)[C@H](CO)NC(=O)[C@@H]1CCCN1C(=O)[C@@H]1CCCN1C(=O)[C@@H]1CCCN1C(=O)[C@H](C)NC(=O)CNC(=O)[C@H](CO)NC(=O)[C@H](CO)NC(=O)[C@@H]1CCCN1C(=O)CNC(=O)CNC(=O)[C@H](CCCCN)NC(=O)[C@@H](NC(=O)[C@H](CC(C)C)NC(=O)[C@H](Cc1c[nH]c2ccccc12)NC(=O)[C@H](C)NC(=O)[C@@H](NC(=O)[C@H](Cc1ccccc1)NC(=O)[C@H](CCC(=O)O)NC(=O)[C@H](CCCNC(=N)N)NC(=O)[C@@H](NC(=O)[C@H](C)NC(=O)[C@H](CCC(N)=O)NC(=O)[C@H](CCC(=O)O)NC(=O)[C@H](CCC(=O)O)NC(=O)[C@H](CC(C)C)NC(=O)[C@H](Cc1ccc(O)cc1)NC(=O)[C@H](CO)NC(=O)[C@H](CO)NC(=O)[C@@H](NC(=O)[C@@H](N)CC(=O)O)C(C)C)C(C)C)[C@@H](C)CC)C(C)C)C(N)=O)C(=O)O)C(=O)O [compound 59] (H-DVSSYLEEQAVREFIAWLVKGGPSSGAPPPSK([AEEA-γGlu-AEEA-γGlu-Palmitoyl])-NH2; N-terminus assumed)			11	> 25
CCCCCCCCCCCCCCCC(=O)NCCOCCOCC(=O)N[C@@H](CCC(=O)N[C@@H](CCC(=O)NCCOCCOCC(=O)NCCCC[C@H](NC(=O)[C@H](CO)NC(=O)[C@@H]1CCCN1C(=O)[C@@H]1CCCN1C(=O)[C@@H]1CCCN1C(=O)[C@H](C)NC(=O)CNC(=O)[C@H](CO)NC(=O)[C@H](CO)NC(=O)[C@@H]1CCCN1C(=O)CNC(=O)CNC(=O)[C@H](CCCCN)NC(=O)[C@@H](NC(=O)[C@H](CC(C)C)NC(=O)[C@H](Cc1c[nH]c2ccccc12)NC(=O)[C@H](C)NC(=O)[C@@H](NC(=O)[C@H](Cc1ccccc1)NC(=O)[C@H](CCC(=O)O)NC(=O)[C@H](CCCNC(=N)N)NC(=O)[C@@H](NC(=O)[C@H](C)NC(=O)[C@H](CCC(N)=O)NC(=O)[C@H](CCC(=O)O)NC(=O)[C@H](CCC(=O)O)NC(=O)[C@H](CC(C)C)NC(=O)[C@H](Cc1ccc(O)cc1)NC(=O)[C@H](CO)NC(=O)[C@H](CO)NC(=O)[C@@H](NC(=O)[C@@H](N)CC(=O)O)C(C)C)C(C)C)[C@@H](C)CC)C(C)C)C(N)=O)C(=O)O)C(=O)O [compound 60] (H-DVSSYLEEQAVREFIAWLVKGGPSSGAPPPSK([AEEA-γGlu-γGlu-AEEA-Palmitoyl])-NH2; N-terminus assumed)			5	> 25
